# Experimental data published in paper PMC4685510, “A Cell Biologist’s Field Guide to Aurora Kinase Inhibitors” (Frontiers in Oncology, 2015).
# Columns and labels:
# Assay in all cases: biochemical
# Type in all cases: biochemical
# [1] = target: T1, 363 human kinases (including Aurora A/B/C) (Homo sapiens, UniProt O15530); details: PDK1/PDPK1; for remaining activity at 0.1 µM: 100 nM; for remaining activity at 0.1 µM / remaining activity at 0.5 µM: read-out: % Enzyme Activity (relative to DMSO controls)
# T1 sequence (O15530 1-556): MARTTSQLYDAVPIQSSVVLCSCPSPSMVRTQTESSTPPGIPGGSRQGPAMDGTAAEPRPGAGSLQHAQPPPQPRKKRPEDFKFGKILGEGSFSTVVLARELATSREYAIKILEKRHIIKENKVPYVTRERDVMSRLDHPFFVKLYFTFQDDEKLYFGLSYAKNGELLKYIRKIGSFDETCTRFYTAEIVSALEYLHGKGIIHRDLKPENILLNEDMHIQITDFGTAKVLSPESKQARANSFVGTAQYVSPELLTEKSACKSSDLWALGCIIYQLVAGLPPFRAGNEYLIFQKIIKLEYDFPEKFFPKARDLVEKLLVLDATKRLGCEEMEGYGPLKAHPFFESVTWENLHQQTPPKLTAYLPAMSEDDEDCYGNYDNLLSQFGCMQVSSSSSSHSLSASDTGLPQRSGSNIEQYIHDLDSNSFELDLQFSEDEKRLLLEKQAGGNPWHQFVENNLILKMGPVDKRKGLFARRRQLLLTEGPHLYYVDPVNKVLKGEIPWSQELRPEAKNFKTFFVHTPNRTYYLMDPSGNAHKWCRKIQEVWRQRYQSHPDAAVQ
# From the text: (§1) However, the Aurora A/B selectivity ratios derived from our in vitro and in vivo data can be compared to prioritize inhibitors.
# [2] = target: 363 human kinases (including Aurora A/B/C) (Homo sapiens, UniProt O94804); details: LOK/STK10; for remaining activity at 0.1 µM: 100 nM; for remaining activity at 0.1 µM / remaining activity at 0.5 µM: read-out: % Enzyme Activity (relative to DMSO controls)
# From the text: as §1
# [3] = target: 363 human kinases (including Aurora A/B/C) (Homo sapiens, UniProt P08581); details: c-MET, [ATP] 30 µM; for remaining activity at 0.1 µM: 100 nM; for remaining activity at 0.1 µM / remaining activity at 0.5 µM: read-out: % Enzyme Activity (relative to DMSO controls)
# From the text: as §1
# [4] = target: 363 human kinases (including Aurora A/B/C) (Homo sapiens, UniProt P15056); details: BRAF, [ATP] 10 µM; for remaining activity at 0.1 µM: 100 nM; for remaining activity at 0.1 µM / remaining activity at 0.5 µM: read-out: % Enzyme Activity (relative to DMSO controls)
# From the text: as §1
# [5] = target: 363 human kinases (including Aurora A/B/C) (Homo sapiens, UniProt P37023); details: ALK1/ACVRL1, [ATP] 100 µM; for remaining activity at 0.1 µM: 100 nM; for remaining activity at 0.1 µM / remaining activity at 0.5 µM: read-out: % Enzyme Activity (relative to DMSO controls)
# From the text: as §1
# [6] = target: 363 human kinases (including Aurora A/B/C) (Homo sapiens, UniProt P68400); details: CK2a, [ATP] 20 µM, read-out: % Enzyme Activity (relative to DMSO controls); for remaining activity at 0.1 µM: 100 nM; for remaining activity at 0.5 µM: 500 nM
# From the text: as §1
# [7] = target: T2, 363 human kinases (including Aurora A/B/C) (Homo sapiens, UniProt Q8N752); details: CK1a1L, [ATP] 30 µM; for remaining activity at 0.1 µM: 100 nM; for remaining activity at 0.1 µM / remaining activity at 0.5 µM: read-out: % Enzyme Activity (relative to DMSO controls)
# T2 sequence (Q8N752 1-337): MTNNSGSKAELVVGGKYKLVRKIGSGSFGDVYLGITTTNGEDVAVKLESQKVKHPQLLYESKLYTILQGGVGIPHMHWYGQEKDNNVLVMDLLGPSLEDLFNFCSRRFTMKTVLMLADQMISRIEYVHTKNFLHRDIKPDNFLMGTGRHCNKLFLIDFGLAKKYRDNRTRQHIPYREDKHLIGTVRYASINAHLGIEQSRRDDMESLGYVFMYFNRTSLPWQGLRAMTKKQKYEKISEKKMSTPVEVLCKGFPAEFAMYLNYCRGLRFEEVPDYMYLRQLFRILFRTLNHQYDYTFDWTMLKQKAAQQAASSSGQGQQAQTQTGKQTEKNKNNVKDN
# From the text: as §1
# [8] = target: T3, 363 human kinases (including Aurora A/B/C) (Homo sapiens, UniProt Q99759); details: MEKK3; for remaining activity at 0.1 µM: 100 nM; for remaining activity at 0.1 µM / remaining activity at 0.5 µM: read-out: % Enzyme Activity (relative to DMSO controls)
# T3 sequence (Q99759 1-626): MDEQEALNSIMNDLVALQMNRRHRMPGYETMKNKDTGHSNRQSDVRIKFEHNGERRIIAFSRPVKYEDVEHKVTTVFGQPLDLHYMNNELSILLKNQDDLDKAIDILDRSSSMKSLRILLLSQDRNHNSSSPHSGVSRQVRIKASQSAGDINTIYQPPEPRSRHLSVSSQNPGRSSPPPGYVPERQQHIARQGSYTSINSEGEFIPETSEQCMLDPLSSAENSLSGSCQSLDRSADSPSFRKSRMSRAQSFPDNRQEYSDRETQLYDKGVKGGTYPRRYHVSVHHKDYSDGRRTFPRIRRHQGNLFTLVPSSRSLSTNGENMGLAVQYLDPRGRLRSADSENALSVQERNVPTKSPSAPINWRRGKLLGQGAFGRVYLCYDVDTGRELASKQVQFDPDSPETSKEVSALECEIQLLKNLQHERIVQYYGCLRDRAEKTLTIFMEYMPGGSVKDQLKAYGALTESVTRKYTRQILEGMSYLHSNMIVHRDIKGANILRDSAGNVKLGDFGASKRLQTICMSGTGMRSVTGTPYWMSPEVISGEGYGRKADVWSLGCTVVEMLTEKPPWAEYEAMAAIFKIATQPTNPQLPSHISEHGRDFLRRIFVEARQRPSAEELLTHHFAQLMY
# From the text: as §1
# Sequence of 363 human kinases (including Aurora A/B/C) (Homo sapiens, UniProt P68400) (P68400 whole entry): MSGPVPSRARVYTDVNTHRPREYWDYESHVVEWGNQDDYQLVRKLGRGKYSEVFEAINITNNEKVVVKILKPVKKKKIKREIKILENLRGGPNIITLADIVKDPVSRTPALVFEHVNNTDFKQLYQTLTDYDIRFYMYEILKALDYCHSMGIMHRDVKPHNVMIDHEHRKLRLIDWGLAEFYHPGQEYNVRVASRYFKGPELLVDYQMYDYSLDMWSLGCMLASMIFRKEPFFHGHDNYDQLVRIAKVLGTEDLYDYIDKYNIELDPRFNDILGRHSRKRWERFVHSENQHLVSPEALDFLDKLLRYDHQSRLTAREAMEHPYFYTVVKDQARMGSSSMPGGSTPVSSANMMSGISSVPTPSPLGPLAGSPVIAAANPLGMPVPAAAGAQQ
# Sequence of 363 human kinases (including Aurora A/B/C) (Homo sapiens, UniProt P08581) (P08581 25-1390): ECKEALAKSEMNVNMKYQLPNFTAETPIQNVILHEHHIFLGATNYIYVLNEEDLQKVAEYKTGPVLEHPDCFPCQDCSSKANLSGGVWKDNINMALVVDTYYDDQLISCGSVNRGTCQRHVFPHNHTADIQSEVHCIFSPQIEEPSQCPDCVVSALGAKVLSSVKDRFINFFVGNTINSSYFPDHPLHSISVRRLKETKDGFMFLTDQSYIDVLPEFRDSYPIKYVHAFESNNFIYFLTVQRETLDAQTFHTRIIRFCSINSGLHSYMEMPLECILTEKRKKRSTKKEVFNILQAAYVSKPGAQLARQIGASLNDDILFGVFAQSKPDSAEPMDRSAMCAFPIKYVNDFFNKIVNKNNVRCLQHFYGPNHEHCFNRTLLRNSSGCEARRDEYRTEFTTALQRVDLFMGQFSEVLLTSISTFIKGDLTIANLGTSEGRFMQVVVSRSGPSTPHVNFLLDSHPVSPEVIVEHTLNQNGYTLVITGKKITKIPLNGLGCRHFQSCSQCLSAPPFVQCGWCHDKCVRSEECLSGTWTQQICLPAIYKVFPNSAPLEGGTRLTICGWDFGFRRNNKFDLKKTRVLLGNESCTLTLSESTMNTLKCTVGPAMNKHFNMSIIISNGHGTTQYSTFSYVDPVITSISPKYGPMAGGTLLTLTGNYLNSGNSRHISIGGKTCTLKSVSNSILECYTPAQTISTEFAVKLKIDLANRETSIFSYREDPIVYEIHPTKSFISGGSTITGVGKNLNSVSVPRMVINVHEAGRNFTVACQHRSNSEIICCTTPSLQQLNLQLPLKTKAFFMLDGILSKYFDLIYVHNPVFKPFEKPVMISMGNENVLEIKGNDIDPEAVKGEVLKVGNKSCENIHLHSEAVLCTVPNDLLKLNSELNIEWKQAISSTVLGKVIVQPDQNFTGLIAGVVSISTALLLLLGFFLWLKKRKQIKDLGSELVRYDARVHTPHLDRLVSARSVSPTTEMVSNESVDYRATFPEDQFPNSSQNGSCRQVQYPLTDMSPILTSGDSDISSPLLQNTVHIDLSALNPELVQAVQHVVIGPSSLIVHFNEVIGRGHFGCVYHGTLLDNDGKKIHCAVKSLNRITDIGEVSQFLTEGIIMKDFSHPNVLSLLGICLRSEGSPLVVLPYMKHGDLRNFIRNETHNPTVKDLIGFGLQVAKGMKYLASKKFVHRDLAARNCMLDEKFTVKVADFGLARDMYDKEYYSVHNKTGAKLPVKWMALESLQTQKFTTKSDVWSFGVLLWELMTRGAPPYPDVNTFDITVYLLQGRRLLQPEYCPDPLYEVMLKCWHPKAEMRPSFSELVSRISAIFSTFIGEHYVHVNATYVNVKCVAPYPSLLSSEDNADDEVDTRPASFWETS
# Sequence of 363 human kinases (including Aurora A/B/C) (Homo sapiens, UniProt O94804) (O94804 whole entry): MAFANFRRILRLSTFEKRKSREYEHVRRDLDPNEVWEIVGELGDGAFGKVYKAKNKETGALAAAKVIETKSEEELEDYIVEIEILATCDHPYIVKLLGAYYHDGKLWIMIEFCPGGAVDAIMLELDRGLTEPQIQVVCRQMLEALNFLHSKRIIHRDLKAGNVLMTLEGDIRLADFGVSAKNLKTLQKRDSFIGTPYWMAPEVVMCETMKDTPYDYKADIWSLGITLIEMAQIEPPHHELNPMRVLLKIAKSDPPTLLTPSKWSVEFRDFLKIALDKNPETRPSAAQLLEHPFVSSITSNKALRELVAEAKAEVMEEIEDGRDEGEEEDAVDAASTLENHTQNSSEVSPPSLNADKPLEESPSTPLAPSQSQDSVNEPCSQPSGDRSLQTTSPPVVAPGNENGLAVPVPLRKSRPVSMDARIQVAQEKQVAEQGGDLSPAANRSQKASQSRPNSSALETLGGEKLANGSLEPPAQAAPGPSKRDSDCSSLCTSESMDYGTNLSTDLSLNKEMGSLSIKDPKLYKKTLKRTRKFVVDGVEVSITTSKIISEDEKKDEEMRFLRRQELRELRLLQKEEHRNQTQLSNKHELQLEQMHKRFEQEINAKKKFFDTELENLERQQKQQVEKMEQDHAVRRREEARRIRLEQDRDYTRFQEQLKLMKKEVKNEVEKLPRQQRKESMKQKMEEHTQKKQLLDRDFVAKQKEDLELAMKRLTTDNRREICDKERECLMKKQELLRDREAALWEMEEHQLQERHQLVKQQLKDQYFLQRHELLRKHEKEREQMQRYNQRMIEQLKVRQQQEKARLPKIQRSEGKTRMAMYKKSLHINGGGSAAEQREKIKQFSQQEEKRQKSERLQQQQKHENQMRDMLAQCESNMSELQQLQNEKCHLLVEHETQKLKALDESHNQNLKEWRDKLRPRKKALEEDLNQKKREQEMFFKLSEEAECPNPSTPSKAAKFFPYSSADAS
# Sequence of 363 human kinases (including Aurora A/B/C) (Homo sapiens, UniProt P15056) (P15056 whole entry): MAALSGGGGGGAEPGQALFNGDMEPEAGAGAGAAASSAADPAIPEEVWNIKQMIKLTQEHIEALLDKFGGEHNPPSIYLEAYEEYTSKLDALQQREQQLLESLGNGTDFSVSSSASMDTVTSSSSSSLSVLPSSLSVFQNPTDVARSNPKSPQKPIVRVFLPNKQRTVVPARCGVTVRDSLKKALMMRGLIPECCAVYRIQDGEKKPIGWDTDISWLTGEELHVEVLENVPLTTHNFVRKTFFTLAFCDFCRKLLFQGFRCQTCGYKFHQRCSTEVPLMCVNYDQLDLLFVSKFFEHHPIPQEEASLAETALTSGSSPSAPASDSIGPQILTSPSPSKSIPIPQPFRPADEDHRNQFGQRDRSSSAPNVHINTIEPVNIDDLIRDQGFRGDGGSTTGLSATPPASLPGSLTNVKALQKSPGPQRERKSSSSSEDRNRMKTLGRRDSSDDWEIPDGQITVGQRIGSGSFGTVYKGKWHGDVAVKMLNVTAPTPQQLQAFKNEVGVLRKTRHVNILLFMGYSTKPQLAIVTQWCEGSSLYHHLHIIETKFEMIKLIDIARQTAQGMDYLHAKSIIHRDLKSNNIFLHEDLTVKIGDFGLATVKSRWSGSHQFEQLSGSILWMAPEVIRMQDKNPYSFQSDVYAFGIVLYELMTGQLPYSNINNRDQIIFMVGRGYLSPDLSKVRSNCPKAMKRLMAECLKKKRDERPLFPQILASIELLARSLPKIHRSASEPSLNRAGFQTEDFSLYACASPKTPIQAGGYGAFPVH
# Sequence of 363 human kinases (including Aurora A/B/C) (Homo sapiens, UniProt P37023) (P37023 22-503): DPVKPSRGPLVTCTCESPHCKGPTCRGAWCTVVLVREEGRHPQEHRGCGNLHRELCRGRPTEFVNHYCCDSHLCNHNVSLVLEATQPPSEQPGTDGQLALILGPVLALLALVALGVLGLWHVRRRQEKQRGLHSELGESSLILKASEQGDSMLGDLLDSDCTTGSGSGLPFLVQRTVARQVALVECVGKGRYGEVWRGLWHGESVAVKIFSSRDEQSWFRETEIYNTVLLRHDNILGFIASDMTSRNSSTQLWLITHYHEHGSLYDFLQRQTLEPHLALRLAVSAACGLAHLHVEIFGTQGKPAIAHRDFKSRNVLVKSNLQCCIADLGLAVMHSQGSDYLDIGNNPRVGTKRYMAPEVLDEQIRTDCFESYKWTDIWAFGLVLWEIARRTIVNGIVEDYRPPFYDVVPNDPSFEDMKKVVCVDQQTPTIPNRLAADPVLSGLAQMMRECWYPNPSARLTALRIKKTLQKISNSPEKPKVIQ
smiles,measurement,setting,value
CCn1cc(-c2ccnc3[nH]c(-c4cccc(CN(C)C)c4)cc23)c(-c2ccc(NC(=O)N(C)C)cc2)n1 [GSK1070916],remaining activity at 0.1 µM,[1],94%
same,remaining activity at 0.1 µM,[2],73.2%
same,remaining activity at 0.1 µM,[3],84.8%
same,remaining activity at 0.1 µM,[4],97.1%
same,remaining activity at 0.1 µM,[5],98.2%
same,remaining activity at 0.1 µM,[6],99.6%
same,remaining activity at 0.1 µM,[7],108%
same,remaining activity at 0.1 µM,[8],97.2%
O=C(c1cccc(Cl)c1F)N1CCN(Cc2cccc(Nc3nccs3)n2)CC1 [MK-8745],% Enzyme Activity (relative to DMSO controls),[1]; 500 nM,93.63%
same,remaining activity at 0.5 µM,[1]; 500 nM,94.7%
same,% Enzyme Activity (relative to DMSO controls),[2]; 500 nM,49.80%
same,remaining activity at 0.5 µM,[2]; 500 nM,52.1%
same,% Enzyme Activity (relative to DMSO controls),[3]; 500 nM,76.29%
same,remaining activity at 0.5 µM,[3]; 500 nM,77.2%
same,% Enzyme Activity (relative to DMSO controls),[4]; 500 nM,94.88%
same,remaining activity at 0.5 µM,[4]; 500 nM,96.1%
same,% Enzyme Activity (relative to DMSO controls),[5]; 500 nM,71.54%
same,remaining activity at 0.5 µM,[5]; 500 nM,75.1%
same,remaining activity at 0.5 µM,[6],91.9%
same,% Enzyme Activity (relative to DMSO controls),[7]; 500 nM,102.40%
same,remaining activity at 0.5 µM,[7]; 500 nM,103%
same,% Enzyme Activity (relative to DMSO controls),[8]; 500 nM,111.88%
same,remaining activity at 0.5 µM,[8]; 500 nM,114%
O=C(O)[C@]1(Cc2cccc(Nc3nccs3)n2)CC[C@@H](Oc2cccc(Cl)c2F)CC1 [MK-5108],remaining activity at 0.1 µM,[1],98.7%
same,remaining activity at 0.5 µM,[1]; 500 nM,88.8%
same,remaining activity at 0.1 µM,[2],34%
same,remaining activity at 0.5 µM,[2]; 500 nM,10.3%
same,remaining activity at 0.1 µM,[3],74.5%
same,remaining activity at 0.5 µM,[3]; 500 nM,50.3%
same,remaining activity at 0.1 µM,[4],103%
same,remaining activity at 0.5 µM,[4]; 500 nM,94.7%
same,remaining activity at 0.1 µM,[5],51.3%
same,remaining activity at 0.5 µM,[5]; 500 nM,36.5%
same,remaining activity at 0.1 µM,[6],104%
same,remaining activity at 0.5 µM,[6],105%
same,remaining activity at 0.1 µM,[7],108%
same,remaining activity at 0.5 µM,[7]; 500 nM,115%
same,remaining activity at 0.1 µM,[8],96.3%
same,remaining activity at 0.5 µM,[8]; 500 nM,117%
